Test results reported in patent publication US12521373B2, “Use of losartan for the treatment of fibrotic diseases, in particular epidermolysis bullosa” (Crowd Pharma Losartan GmbH & Co. KG, priority 2020, dated 2026).

Columns and labels:
Format in all cases: in vivo, human
[1] = system: CRP, IL6, Serum amyloid A and TNFα; experiment: Serum biomarkers of inflammation in clinical trial; conditions: over the trial, FIG. 8
Experimental: A blood sample for serum analysis was collected at all clinic visits. The analyses includes TGF levels, and biomarkers of inflammation and fibrosis, such as TNFα, CRP, ferritin, IL6 (FIG. 4) and amyloid. TGFβ and TNFα was analyzed by specific quantitative ELISAs (RayBiotech) at the EB Center Freiburg, while CRP, ferritin, IL6 and amyloid are measured at the central laboratories of the Medical Centers in Freiburg.

[2] = system: children with moderate to severe RDEB; experiment: Epidermolysis Bullosa Disease Activity and Scarring Index (EBDASI) in clinical trial
From the text: In order to check whether beneficial effects could be obtained in human beings, a clinical trial has been performed. In the trial a group of about 30 patients has been selected. Patient enrollment: 28 children with molecularly confirmed diagnosis of moderate to severe RDEB, age 2-16 years (age of 25 months), were enrolled at the EB Center Freiburg. A validated scoring instrument for EB that assesses response to therapy separately from chronic damage. It is therefore suitable for interventional trials. […] It includes an activity and damage component for: 1. skin; 2. scalp; 3. mucous membranes; 4. nails; 5. other epithelialized surfaces (incl. larynx, esophagus, genitourinary), hands-pseudosyndactyly and skin cancer. Statistical values for EBDASI are shown in FIG. 2 when determined at the visits in the clinic.

[3] = system: children with moderate to severe RDEB; experiment: Safety and tolerability in clinical trial (adverse events, blood pressure, heart function)
Experimental: Furthermore, the proPNB(pg/ml) was also measured on each visit to evaluate for signs of heart failure.

[4] = system: children with moderate to severe RDEB; experiment: Quality of Life in EB (QOLEB) Questionnaire in clinical trial; conditions: first interim analysis, FIG. 7
From the text: In order to check whether beneficial effects could be obtained in human beings, a clinical trial has been performed. In the trial a group of about 30 patients has been selected. Patient enrollment: 28 children with molecularly confirmed diagnosis of moderate to severe RDEB, age 2-16 years (age of 25 months), were enrolled at the EB Center Freiburg. Although pain and itch scores partly reflect the patients' quality of life, specific scores were used. […] Therefore, children under the age of 10 years included their parents' advice when completing the questionnaires, and children under 8 years of age or unable to read, have the parents completed the questionnaire.

RDEB patients = experiment: Clinical trial in RDEB patients, overall outcome; conditions: second interim analysis, summary
Experimental: In order to check whether beneficial effects could be obtained in human beings, a clinical trial has been performed. In the trial a group of about 30 patients has been selected. Patient enrollment: 28 children with molecularly confirmed diagnosis of moderate to severe RDEB, age 2-16 years (age of 25 months), were enrolled at the EB Center Freiburg. […] Such parameters were measured in the course of the trial.

[5] = system: children with moderate to severe RDEB; experiment: Children's Dermatology Life Quality Index (CDLQI) in clinical trial
From the text: In order to check whether beneficial effects could be obtained in human beings, a clinical trial has been performed. In the trial a group of about 30 patients has been selected. Patient enrollment: 28 children with molecularly confirmed diagnosis of moderate to severe RDEB, age 2-16 years (age of 25 months), were enrolled at the EB Center Freiburg. The Children's Dermatology Life Quality Index (CDLQI) was used in addition, since it has a version for young children, age of >4, using cartoon images. It consists of 10 questions regarding how the skin disease has affected the patient's quality of life over the past 1 week, in each of 10 domains, with 4 possible responses graded 0-3 (range of scores 0-30).

[6] = system: children with moderate to severe RDEB; experiment: Itch Assessment Scale for the Pediatric Burn Patients in clinical trial; conditions: values at clinical visits after losartan initiation, FIG. 3
From the text: In order to check whether beneficial effects could be obtained in human beings, a clinical trial has been performed. In the trial a group of about 30 patients has been selected. Patient enrollment: 28 children with molecularly confirmed diagnosis of moderate to severe RDEB, age 2-16 years (age of 25 months), were enrolled at the EB Center Freiburg. The Itch Assessment Scale for the Pediatric Burn Patients, a validated instrument for assessing skin burns, which are similar to RDEB. The scale is based on the Itch Man Scale developed by Blakeney & Marvin (2000), and was used to evaluate the intensity of itch of the trial participants. […] Values taken at clinical visits were determined.

[7] = system: children with moderate to severe RDEB; experiment: Birmingham Epidermolysis Bullosa Severity Score (BEBS) in clinical trial; conditions: second interim analysis, baseline (clinic visit 1, day 1) vs clinic visit 5, week 40, FIG. 9
From the text: In order to check whether beneficial effects could be obtained in human beings, a clinical trial has been performed. In the trial a group of about 30 patients has been selected. Patient enrollment: 28 children with molecularly confirmed diagnosis of moderate to severe RDEB, age 2-16 years (age of 25 months), were enrolled at the EB Center Freiburg. […] Eleven items are scored: area of damaged skin, involvement of nails, mouth, eyes, larynx and esophagus, scarring of hands, skin cancer, chronic wounds, alopecia and nutritional compromise. The area of damaged skin is allocated 50 points, and the 10 other items 5 points each, giving a maximum score of 100. […] Therefore, an additional EB-specific scoring instrument was used.

[8] = system: children with moderate to severe RDEB; experiment: Morphometric scoring of finger contractures (little span) in clinical trial; conditions: second interim analysis, FIG. 12
Experimental: During the ongoing clinical trial described in the preceding examples, an additional novel assessment parameter was added to measure progression of finger contractures: A morphometric scoring instrument that measures the length of the span when spreading fingers as far as possible. In particular, the following parameters were measured: maximal distance of thumb tip and index finger tip (separately for left hand and right hand and the mean value of both hands), also known as 'little span'. In RDEB, disease progression leads to shortening of the span and development of pseudosyndactylies and […] deformities.

[9] = system: children with moderate to severe RDEB; experiment: Wong-Baker FACES Scale for Pain in clinical trial; conditions: first interim analysis, FIG. 6
From the text: In order to check whether beneficial effects could be obtained in human beings, a clinical trial has been performed. In the trial a group of about 30 patients has been selected. Patient enrollment: 28 children with molecularly confirmed diagnosis of moderate to severe RDEB, age 2-16 years (age of 25 months), were enrolled at the EB Center Freiburg. The Wong-Baker FACES Scale for Pain that uses happy or sad faces shown in the score http://wongbakerfaces.org/) is the preferred method of pain reporting by children. This validated tool is widely used to rate pain severity in children with both chronic and acute pain.

[10] = second interim analysis, FIG. 10
[11] = first interim analysis, after 18 patients had completed the study

CCCCc1nc(Cl)c(CO)n1Cc1ccc(-c2ccccc2-c2nnn[nH]2)cc1 [Losartan, 2-Butyl-4-chloro-1-[[2′-(1H-tetrazol-5-yl)[1,1-biphenyl]-4-yl]methyl]-1H-imidazol-5-methanol]
CRP [1]: went down | IL6 [1]: went down | Serum amyloid A [1]: went down | TNFα [1]: went down | EBDASI score ([2]; during treatment, clinic visit 1 to clinic visit 5, FIG. 2): improved substantially | EBDASI activity score ([2]; first interim analysis, FIG. 7): improved | EBDASI damage score ([2]; first interim analysis, FIG. 7): improved | EBDASI activity score [2, 10]: showed improvement | EBDASI damage score [2, 10]: showed improvement | EBDASI score [2, 10]: significantly improved | EBDASI total score (sum of activity and damage score) [2, 10]: showed improvement | Ejection fraction (heart's pump function) ([3]; first interim analysis): no differences | Adverse events related to the Losartan treatment [3, 11]: no adverse events had been observed | Overall safety and tolerability of treatment [3, 11]: safe and well tolerated | proPNB, signs of heart failure ([3]; measured on each visit): no significant changes | Impact on the blood pressure ([3]; normotensive patients, dosage regimen as disclosed): without negative impact | Number of adverse events possibly related to trial medication (pruritus, not serious) ([3]; second interim analysis): 1 | Safety of treatment ([3]; second interim analysis): safe | Quality of life score QoLEB [4]: improvement | Disease progression (RDEB patients): reduced disease progression | Disease symptoms (RDEB patients): improved disease symptoms | Quality of life score CDLQI ([5]; first interim analysis, FIG. 7): improvement | CDLQI score ([5]; second interim analysis, baseline (clinic visit 1, day 1) vs clinic visit 5, week 40, FIG. 11): amelioration of the quality of life | Itch score [6]: a reduction of itch | BEBS [7]: improved | Little span (distance between tip of the thumb and tip of the index finger) [8]: increase | Pain assessment score [9]: went statistically to a lower level
